{"source": "patent US6875575B1", "about": "“Diagnostic methods for neoplasia” (OSI Pharmaceuticals, Inc., priority 1998, dated 2005)", "key": {"neoplastic cells": {"test_system": "neoplastic cells", "assay": "Apoptosis induction in neoplastic cells", "type": "cell-based"}, "[1]": {"test_system": "PDE peak B (novel cGMP-specific PDE)", "assay": "cGMP hydrolysis by PDE peak B from SW-480 cells", "type": "biochemical, human"}, "PDE peak A (PDE5)": {"biological_target": "T1, PDE peak A (PDE5) (Homo sapiens, UniProt O76074)", "T1 construct": "SW-480 cells are collected and homogenized; endogenous in cells; host or cells: SW-480 cells; supernatant fractionated on DEAE-Trisacryl M, peak A", "assay": "cGMP hydrolysis by PDE peak A from SW-480 cells", "type": "biochemical"}, "normal mucosa": {"test_system": "normal mucosa", "assay": "Apoptosis clinical study: ALI in normal mucosa", "type": "in vivo, human", "conditions": "any of the treatment groups", "method": "(§1) Increases in apoptosis are indicative that the neoplasia in question is sensitive to treatment with a cGMP-specific PDE inhibitor, such as sulindac sulfone (aposulind). A human in vivo aposulind-induced selective induction of apoptosis in colonic polyps is described below. Six familial polyposis patients per group were administered one of three doses of aposulind (200 mg, 400 mg which was later lowered to 200 mg for most patients in the group, or 300 mg) twice daily (BID).\nBiopsies are taken from patients and used to investigate possible cellular mechanisms of apoptosis. Biopsy samples are placed in transfer media (500 ml RPMI 1640 containing 50 ml fetal calf serum, 5×10^8 units penicillin G, and 5×10^6 μg streptomycin) and kept on ice for less than 1 hour until transfer to the pathology department. Upon receipt in the pathology department, samples are removed from the transfer media and oriented mucosa up, serosa down on filter paper, placed between biopsy sponges in a tissue cassette, and fixed in 10% neutral buffered formalin for 24 hours. […]\n(§2) Apoptotic and nonapoptotic cells are counted on the basis of staining and morphology. An apoptotic labeling index (ALI) is calculated by dividing the total number of apoptotic cells counted by the total number of epithelial cells counted and expressing the quotient as a percentage."}, "[2]": {"test_system": "colonic polyps (dysplastic tissue)", "assay": "Apoptosis clinical study: apoptotic labeling index (ALI) in polyps", "type": "in vivo, human", "method": "as §1\nBiopsies are taken from patients and used to investigate possible cellular mechanisms of apoptosis. Biopsy samples are placed in transfer media (500 ml RPMI 1640 containing 50 ml fetal calf serum, 5×10^8 units penicillin G, and 5×10^6 μg streptomycin) and kept on ice for less than 1 hour until transfer to the pathology department. Upon receipt in the pathology department, samples are removed from the transfer media and oriented mucosa up, serosa down on filter paper, placed between biopsy sponges in a tissue cassette, and fixed in 10% neutral buffered formalin for 24 hours. Samples are then transferred to 70% ethanol and embedded in paraffin. Samples are oriented perpendicularly to the tissue cassette during final orientation in paraffin for longitudinal crypt exposure and easy visualization of mucosa and the relation to the basement membrane.\nFour micron sections of tissue were cut, mounted, deparaffinized, rehydrated in graded alcohol, and treated with pepsin (5 mg/ml) to digest protein in the tissue. Sections were washed and treated with 2% hydrogen peroxide (H2O2) in PBS to quench endogenous peroxidase and washed again. Tissue samples were then circled with a PAP pen (Research Products Int., 800-323-9814) to produce a hydrophobic barrier to concentrate reagents on the sample. […]\nas §2"}, "HT-29 cells": {"test_system": "HT-29 cells", "assay": "Apoptosis and necrosis by morphology (acridine orange/ethidium bromide)", "type": "cell-based", "conditions": "HT-29 cells treated for six days", "method": "In one type of apoptosis assay, suspected neoplastic cells are removed from a patient. The cells are then grown in culture in the presence or absence of a cGMP-specific PDE inhibitor. Apoptotic cells are measured by combining both the attached and “floating” compartments of the cultures. The protocol for treating tumor cell cultures with PDE inhibitors and related compounds to obtain a significant amount of apoptosis has been described in the literature. (See, Piazza, G. A., et al., Cancer Research, 55:3110-16, 1995, which is incorporated herein by reference). The novel features of this assay include collecting both floating and attached cells, identification of the optimal treatment times and dose range for observing apoptosis, and identification of optimal cell culture conditions. […]\nApoptotic and necrotic cell death was determined as previously described (Duke and Cohen, In: Current Protocols in Immunology, 3.17.1-3.17.16, New York, John Wiley and Sons, 1992). […]\nThe diagnostic method of this invention is used to determine whether a particular neoplasia is sensitive to treatment with a cGMP-specific PDE inhibitor. The apoptosis inducing activity for a series of phosphodiesterase inhibitors, specific for different PDEs, was determined. […] Apoptosis and necrosis were determined morphologically after acridine orange and ethidium bromide labeling in accordance with the assay described, supra."}}, "note": "Entries after “also recorded” stand apart in the source; their conditions may differ. Read-outs that look alike come from different tables or passages of the source.", "data": [{"smiles": "O=C(O)C1CCN(c2nc(NCc3ccc4c(c3)OCO4)c3cc(Cl)ccc3n2)CC1", "note": "[Compound E4021]", "values": [{"measurement": "induction of apoptosis in neoplastic cells (in words)", "setting": "neoplastic cells", "result": "do not have significant apoptosis-inducing or growth-inhibiting properties"}, {"measurement": "inhibition of peak B / new cGMP-PDE (in words)", "setting": "[1]", "result": "E4021-insensitive"}, {"measurement": "inhibition of peak B / new cGMP-PDE (in words)", "setting": "[1]; listed as E402 1", "result": "relatively insensitive to inhibition"}]}, {"smiles": "COc1cc(/C=C2/C(C)=C(CC(=O)NCc3ccccc3)c3cc(F)ccc32)cc(OC)c1OC", "note": "[Compound E, (Z)-5-fluoro-2-methyl-1-(3,4,5-trimethoxybenzylidene)-3-indenylacetamide, N-benzyl]", "values": [{"measurement": "induction of apoptosis in neoplastic cells (in words)", "setting": "neoplastic cells", "result": "induce apoptosis in neoplastic cells"}, {"measurement": "inhibition of peak A / PDE5 (in words)", "setting": "PDE peak A (PDE5)", "result": "competitively inhibit"}, {"measurement": "inhibition of peak B / new cGMP-PDE (in words)", "setting": "[1]", "result": "competitively inhibit"}]}, {"smiles": "CC1=C(CC(=O)O)c2cc(F)ccc2/C1=C\\c1ccc(S(C)(=O)=O)cc1", "note": "[Exisulind, (Z)-5-fluoro-2-methyl-1-[[4-(methylsulfonyl)phenyl]methylene]indene-3-yl acetic acid]", "values": [{"measurement": "normal mucosa ALI versus baseline ALI during treatment", "setting": "normal mucosa", "result": "no significant change"}, {"measurement": "change in ALI following treatment", "setting": "[2]; 200 mg BID group", "result": "did not demonstrate any elevation in ALI"}, {"measurement": "change in ALI in polyps", "setting": "[2]; 300 mg BID, six months of treatment", "result": "two fold increase in ALI"}, {"measurement": "change in ALI of dysplastic tissue following drug treatment", "setting": "[2]; 400/200 mg BID group when uniformly dosed at 400 mg BID", "result": "two-fold elevation in ALI"}, {"measurement": "apoptotic and necrotic cell death (FIG. 1)", "setting": "HT-29 cells", "result": "capable of causing apoptotic cell death without inducing neoplastic cell necrosis"}]}, {"smiles": "CC1(C)C(=O)Nc2ccc(C3=NNC(=O)CC3)cc21", "note": "[Indolidan]", "values": [{"measurement": "inhibition of peak B / new cGMP-PDE (in words)", "setting": "[1]", "result": "relatively insensitive"}]}, {"smiles": "COc1ccc(C2CNC(=O)C2)cc1OC1CCCC1", "note": "(centres unmarked) [Rolipram]", "values": [{"measurement": "inhibition of peak B / new cGMP-PDE (in words)", "setting": "[1]", "result": "relatively insensitive"}]}, {"smiles": "CCCc1nn(C)c2c(=O)[nH]c(-c3cc(S(=O)(=O)N4CCN(C)CC4)ccc3OCC)nc12", "note": "[Sildenafil]", "values": [{"measurement": "induction of apoptosis in neoplastic cells (in words)", "setting": "neoplastic cells", "result": "do not have significant apoptosis-inducing or growth-inhibiting properties"}, {"measurement": "inhibition of peak A / PDE5 (in words)", "setting": "PDE peak A (PDE5)", "result": "inhibited activity of peak A"}, {"measurement": "inhibition of peak B / new cGMP-PDE (in words)", "setting": "[1]", "result": "relatively insensitive to inhibition"}]}, {"smiles": "CSc1ccc(/C=C2/C(C)=C(CC(=O)O)c3cc(F)ccc32)cc1", "note": "[Sulindac sulfide, sulindac sulfide]", "values": [{"measurement": "induction of apoptosis in neoplastic cells (in words)", "setting": "neoplastic cells", "result": "induce apoptosis in neoplastic cells"}, {"measurement": "inhibition of peak A / PDE5 (in words)", "setting": "PDE peak A (PDE5)", "result": "inhibit"}, {"measurement": "inhibition of peak A / PDE5 (in words)", "setting": "PDE peak A (PDE5); listed as sulindac sulfide", "result": "competitively inhibit"}, {"measurement": "apoptotic and necrotic cell death (FIG. 1)", "setting": "HT-29 cells", "result": "capable of causing apoptotic cell death without inducing neoplastic cell necrosis"}, {"measurement": "inhibition of peak B / new cGMP-PDE (in words)", "setting": "[1]", "result": "inhibit"}, {"measurement": "inhibition of peak B / new cGMP-PDE (in words)", "setting": "[1]; listed as sulindac sulfide", "result": "competitively inhibit"}]}, {"smiles": "CCOC(=O)C1=C[C@]2(CC)CCCN3CCc4c(n1c1ccccc41)[C@@H]32", "note": "[Vinpocetine]", "values": [{"measurement": "inhibition of peak B / new cGMP-PDE (in words)", "setting": "[1]", "result": "relatively insensitive"}]}, {"smiles": "CCCOc1ccccc1-c1nc2nn[nH]c2c(=O)[nH]1", "note": "[Zaprinast]", "values": [{"measurement": "induction of apoptosis in neoplastic cells (in words)", "setting": "neoplastic cells", "result": "do not have significant apoptosis-inducing or growth-inhibiting properties"}, {"measurement": "inhibition of peak A / PDE5 (in words)", "setting": "PDE peak A (PDE5)", "result": "competitive inhibition"}, {"measurement": "inhibition of peak B / new cGMP-PDE (in words)", "setting": "[1]", "result": "relatively insensitive to inhibition; also recorded: zaprinast-insensitive"}]}]}
